In patent publication US9657009B2, “Heteroaryl substituted pyridyl compounds useful as kinase modulators” (BRISTOL-MYERS SQUIBB COMPANY, priority 2012, dated 2017):

biological target: IRAK4 (Homo sapiens (Human), UniProt Q9NWZ3); assay: IRAK4 Inhibition Assay; assay type: biochemical; details: not given
Procedure: IRAK4 Inhibition Assay The assays were performed in U-bottom 384-well plates. […] The reaction was initiated by the combination of IRAK4 with substrates and test compounds. The reaction mixture was incubated at room temperature for 60 min. and terminated by adding 45 μL of 35 mM EDTA to each sample.

Sequence of IRAK4 (Q9NWZ3 whole entry, species assumed): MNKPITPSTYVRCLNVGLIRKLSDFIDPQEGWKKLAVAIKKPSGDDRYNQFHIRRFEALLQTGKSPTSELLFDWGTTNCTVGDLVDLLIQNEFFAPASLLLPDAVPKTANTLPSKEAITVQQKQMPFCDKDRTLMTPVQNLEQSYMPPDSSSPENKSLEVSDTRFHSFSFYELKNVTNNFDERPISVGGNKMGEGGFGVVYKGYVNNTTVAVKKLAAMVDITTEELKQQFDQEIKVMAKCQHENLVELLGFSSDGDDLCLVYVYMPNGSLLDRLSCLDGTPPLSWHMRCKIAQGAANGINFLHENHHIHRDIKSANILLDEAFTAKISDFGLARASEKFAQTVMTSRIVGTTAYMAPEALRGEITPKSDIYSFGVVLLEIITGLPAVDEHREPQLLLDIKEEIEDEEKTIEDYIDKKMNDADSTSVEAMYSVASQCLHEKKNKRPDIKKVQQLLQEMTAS

Row | Compound | IC50 [nM]
1 | CC(C)(O)[C@H](F)CNC(=O)c1cnc(Nc2nc(-c3cccnc3)cs2)cc1NC1CC1 [Example 23, 4-(cyclopropylamino)-N-((2R)-2-fluoro-3-hydroxy-3-methylbutyl)-6-((4-(3-pyridinyl)-1,3-thiazol-2-yl)amino)nicotinamide] | 23.3

same assay, conditions: ATP 500 μM; IRAK4 0.6 nM; 60 min at room temperature; read-out: IRAK4 IC50

Row | Compound | IC50 [nM]
2 | CC(C)Nc1cc(Nc2ccc(C#N)c(N3CCC(O)C3)n2)ncc1C(=O)NC[C@@H](F)C(C)(C)O (stereo in doubt) [Example 27, 6-((5-cyano-6-((3S)-3-hydroxy-1-pyrrolidinyl)-2-pyridinyl)amino)-N-((2R)-2-fluoro-3-hydroxy-3-methylbutyl)-4-(isopropylamino)nicotinamide] | 6
3 | CNC(=O)c1cnc(Nc2ccc(C#N)cn2)cc1N[C@@H](c1ccccc1)[C@H](O)CO [Example 1, 6-((5-cyano-2-pyridinyl)amino)-4-(((1S,2S)-2,3-dihydroxy-1-phenylpropyl)amino)-N-methylnicotinamide] | 53.9
4 | CC(C)Nc1cc(Nc2ccc(C#N)cn2)ncc1C(=O)NC[C@@H](F)C(C)(C)O [Example 2, 6-((5-cyano-2-pyridinyl)amino)-N-((2R)-2-fluoro-3-hydroxy-3-methylbutyl)-4-(isopropylamino)nicotinamide] | 2
5 | CC(C)(O)[C@H](F)CNC(=O)c1cnc(Nc2ccc(C#N)cn2)cc1NCC(F)(F)F [Example 3, 6-((5-cyano-2-pyridinyl)amino)-N-((2R)-2-fluoro-3-hydroxy-3-methylbutyl)-4-((2,2,2-trifluoroethyl)amino)nicotinamide] | 14.8
6 | CCNc1cc(Nc2ccc(C#N)cn2)ncc1C(=O)NC[C@@H](F)C(C)(C)O [Example 4, 6-((5-cyano-2-pyridinyl)amino)-4-(ethylamino)-N-((2R)-2-fluoro-3-hydroxy-3-methylbutyl)nicotinamide] | 10.3
7 | CC(C)Nc1cc(Nc2ccc(C#N)cn2)ncc1C(=O)N[C@H]1CC[C@H](C(=O)NC2CC2)CC1 [Example 6, 6-((5-cyanopyridin-2-yl)amino)-N-((1R,4R)-4-(cyclopropylcarbamoyl)cyclohexyl)-4-(isopropylamino)nicotinamide] | 5.5
8 | CC(C)Nc1cc(Nc2ccc(C#N)cn2)ncc1C(=O)N[C@H]1CC[C@H](C(=O)N[C@H]2C[C@H]2F)CC1 [Example 7, 6-((5-cyano-2-pyridinyl)amino)-N-(trans-4-(((1S,2R)-2-fluorocyclopropyl)carbamoyl)cyclohexyl)-4-(isopropylamino)nicotinamide] | 10.4
9 | CC(=O)N1CCC(NC(=O)c2cnc(Nc3ccc(C#N)cn3)cc2NC(C)C)CC1 [Example 8, N-(1-acetyl-4-piperidinyl)-6-((5-cyano-2-pyridinyl)amino)-4-(isopropylamino)nicotinamide] | 30.7
10 | CC(=O)N[C@H]1CC[C@H](NC(=O)c2cnc(Nc3ccc(C#N)cn3)cc2NC(C)C)CC1 [Example 9, N-(trans-4-acetamidocyclohexyl)-6-((5-cyano-2-pyridinyl)amino)-4-(isopropylamino)nicotinamide] | 7.4
11 | CC(=O)N[C@H]1CC[C@H](NC(=O)c2cnc(Nc3ccc(C#N)cn3)cc2NC2CCOCC2F)CC1 (stereo partly drawn) [Example 11, N-((1R,4R)-4-acetamidocyclohexyl)-6-((5-cyanopyridin-2-yl)amino)-4-(((3S,4R)-3-fluorotetrahydro-2H-pyran-4-yl)amino)nicotinamide] | 11.1
12 | CC(C)Nc1cc(Nc2ncc(C#N)cc2Cl)ncc1C(=O)NC[C@@H](F)C(C)(C)O [Example 12, 6-((3-chloro-5-cyano-2-pyridinyl)amino)-N-((2R)-2-fluoro-3-hydroxy-3-methylbutyl)-4-(isopropylamino)nicotinamide] | 1.9
13 | CC(=O)N[C@H]1CC[C@H](NC(=O)c2cnc(Nc3ncc(C#N)cc3Cl)cc2NC(C)C)CC1 [Example 15, N-((1r,4r)-4-acetamidocyclohexyl)-6-((3-chloro-5-cyanopyridin-2-yl)amino)-4-(isopropylamino)nicotinamide] | 5.2
14 | CNC(=O)[C@H]1CC[C@H](NC(=O)c2cnc(Nc3ncc(C#N)cc3Cl)cc2NC(C)C)CC1 [Example 16, 6-((3-chloro-5-cyanopyridin-2-yl)amino)-4-(isopropylamino)-N-((1r,4r)-4-(methylcarbamoyl)cyclohexyl)nicotinamide] | 6.3
15 | CC(C)Nc1cc(Nc2ncc(C#N)cc2F)ncc1C(=O)NC[C@@H](F)C(C)(C)O [Example 17, 6-((5-cyano-3-fluoro-2-pyridinyl)amino)-N-((2R)-2-fluoro-3-hydroxy-3-methylbutyl)-4-(isopropylamino)nicotinamide] | 9.6
16 | CNC(=O)[C@H]1CC[C@H](NC(=O)c2cnc(Nc3ncc(C#N)cc3F)cc2NC(C)C)CC1 [Example 18, 6-((5-cyano-3-fluoropyridin-2-yl)amino)-4-(isopropylamino)-N-((1r,4r)-4-(methylcarbamoyl)cyclohexyl)nicotinamide] | 3.4
17 | CC(=O)N[C@H]1CC[C@H](NC(=O)c2cnc(Nc3ncc(C#N)cc3F)cc2NC(C)C)CC1 [Example 19, N-(trans-4-acetamidocyclohexyl)-6-((5-cyano-3-fluoro-2-pyridinyl)amino)-4-(isopropylamino)nicotinamide] | 4.8
18 | CC(C)Nc1cc(Nc2ccncn2)ncc1C(=O)NC[C@@H](F)C(C)(C)O [Example 20, N-((2R)-2-fluoro-3-hydroxy-3-methylbutyl)-4-(isopropylamino)-6-(4-pyrimidinylamino)nicotinamide] | 11.7
19 | CC(C)(O)[C@H](F)CNC(=O)c1cnc(Nc2ccncn2)cc1NC1CC1 [Example 21, 4-(cyclopropylamino)-N-((2R)-2-fluoro-3-hydroxy-3-methylbutyl)-6-(4-pyrimidinylamino)nicotinamide] | 13.3
20 | CC(C)Nc1cc(Nc2ncc(C#N)cn2)ncc1C(=O)NC[C@@H](F)C(C)(C)O [Example 22, 6-((5-cyano-2-pyrimidinyl)amino)-N-((2R)-2-fluoro-3-hydroxy-3-methylbutyl)-4-(isopropylamino)nicotinamide] | 5.3
21 | CC(C)Nc1cc(Nc2ccnc(NC3CC3)n2)ncc1C(=O)NC[C@@H](F)C(C)(C)O [Example 24, 6-((2-(cyclopropylamino)-4-pyrimidinyl)amino)-N-((2R)-2-fluoro-3-hydroxy-3-methylbutyl)-4-(isopropylamino)nicotinamide] | 11
22 | CC(C)Nc1cc(Nc2ccnc(NC3CCCOC3)n2)ncc1C(=O)NC[C@@H](F)C(C)(C)O (stereo partly drawn) [Example 25, N-((2R)-2-fluoro-3-hydroxy-3-methylbutyl)-4-(isopropylamino)-6-((2-(tetrahydro-2H-pyran-3-ylamino)-4-pyrimidinyl)amino)nicotinamide] | 9.9
23 | CC(C)Nc1cc(Nc2ccnc(N3CCC(F)C3)n2)ncc1C(=O)NC[C@@H](F)C(C)(C)O (stereo partly drawn) [Example 26, N-((2R)-2-fluoro-3-hydroxy-3-methylbutyl)-6-((2-(3-fluoro-1-pyrrolidinyl)-4-pyrimidinyl)amino)-4-(isopropylamino)nicotinamide] | 4.8
24 | CC(=O)N[C@H](C)CCNC(=O)c1cnc(Nc2ncc(C#N)cc2Cl)cc1NC(C)C [Example 28, (R)—N-(3-acetamidobutyl)-6-((3-chloro-5-cyanopyridin-2-yl)amino)-4-(isopropylamino)nicotinamide] | 1.5
25 | CC(C)NC(=O)N[C@H](C)CCNC(=O)c1cnc(Nc2ncc(C#N)cc2F)cc1NC(C)C [Example 29, (R)-6-((5-cyano-3-fluoropyridin-2-yl)amino)-4-(isopropylamino)-N-(3-(3-isopropylureido)butyl)nicotinamide] | 1.2
26 | CC(C)Nc1cc(Nc2ncc(C#N)cc2F)ncc1C(=O)N[C@H]1CC[C@H](S(C)(=O)=O)CC1 [Example 33, 6-((5-cyano-3-fluoropyridin-2-yl)amino)-4-(isopropylamino)-N-((1R,4R)-4-(methylsulfonyl)cyclohexyl)nicotinamide] | 10
27 | CC(=O)Nc1nc(Nc2cc(NC(C)C)c(C(=O)NC[C@@H](F)C(C)(C)O)cn2)ncc1C#N [Example 34] | 6.1

Next, values leading:

Row | IC50 [nM] | Compound
28 | 4.5 | CC(C)(O)[C@H](F)CNC(=O)c1cnc(Nc2ncc(C(N)=O)cc2Cl)cc1NC1CCC(F)C1 (stereo partly shown) [Example 38]
29 | 3.8 | C[C@@H](CF)Nc1cc(Nc2ncc(C#N)cc2Cl)ncc1C(=O)NC[C@@H](F)C(C)(C)O [Example 39, 6-((3-chloro-5-cyanopyridin-2-yl)amino)-N—((R)-2-fluoro-3-hydroxy-3-methylbutyl)-4-(((S)-1-fluoropropan-2-yl)amino)nicotinamide]
30 | 6.4 | CC(C)Nc1cc(Nc2ncc(C#N)c(NC(C)C)n2)ncc1C(=O)NC[C@@H](F)C(C)(C)O [Example 40]
31 | 14.7 | CC(C)(O)[C@H](F)CNC(=O)c1cnc(Nc2nc(OC3CCNCC3)ncc2Cl)cc1NC1CC1 [Example 42]
32 | 10.7 | CC(C)(O)C(F)(F)CNC(=O)c1cnc(Nc2ncc(C#N)cc2Cl)cc1NC1CC1 [Example 43, 6-((3-chloro-5-cyanopyridin-2-yl)amino)-4-(cyclopropylamino)-N-(2,2-difluoro-3-hydroxy-3-methylbutyl)nicotinamide]
33 | 7.5 | CC(C)Nc1cc(Nc2ccc(=O)[nH]n2)ncc1C(=O)NC[C@@H](F)C(C)(C)O [Example 45]
34 | 16.9 | CC(C)(F)CNc1cc(Nc2ncc(C#N)cc2Cl)ncc1C(=O)NC[C@@H](F)C(C)(C)O [Example 46]
35 | 1.9 | CC(C)(O)[C@H](F)CNC(=O)c1cnc(Nc2ncc(C#N)cc2F)cc1NC1CC1 [Example 47]
36 | 3.1 | CC(C)(O)[C@H](F)CNC(=O)c1cnc(Nc2ncc(C#N)cc2F)cc1NC1CCOCC1 [Example 49]
37 | 9.4 | C[C@@H](CO)Nc1cc(Nc2ncc(C#N)cc2Cl)ncc1C(=O)NC[C@@H](F)C(C)(C)O [Example 50]
38 | 4.6 | CCNc1cc(Nc2ncc(C#N)cc2Cl)ncc1C(=O)NC[C@@H](F)C(C)(C)O [Example 51]
39 | 8.1 | CC(C)Nc1cc(Nc2ncncc2F)ncc1C(=O)NC[C@@H](F)C(C)(C)O [Example 53]
40 | 5 | CC(C)(O)[C@H](F)CNC(=O)c1cnc(Nc2ncc(C#N)cn2)cc1NC1CCC(F)C1 (stereo partly shown) [Example 56]
